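GI50 = concentration required for 50% inhibition of growth. TGI marks complete inhibition of growth.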
Tests used:
Assay in all cases: inhibition of tumour cell growth, NCI panel, 384-well format
HT29 colon = system: HT29 colon
MALME-3M melanoma = system: MALME-3M melanoma
KM12 colon = system: KM12 colon
OVCAR-4 ovarian = system: OVCAR-4 ovarian
HOP-62 NSCLC = system: HOP-62 NSCLC
CAKI-1 renal = system: CAKI-1 renal
HCT-15 colon = system: HCT-15 colon
UO-31 renal = system: UO-31 renal
SNB-75 CNS = system: SNB-75 CNS
A498 renal = system: A498 renal
M14 melanoma = system: M14 melanoma
UACC-62 melanoma = system: UACC-62 melanoma
OVCAR-5 ovarian = system: OVCAR-5 ovarian
HOP-92 NSCLC = system: HOP-92 NSCLC
DU-145 prostate = system: DU-145 prostate
ACHN renal = system: ACHN renal
SF-295 CNS = system: SF-295 CNS
NCI-H23 lung = system: NCI-H23 lung
NCI-H226 lung = system: NCI-H226 lung
EKVX NSCLC = system: EKVX NSCLC
786-0 renal = system: 786-0 renal
COLO 205 colon = system: COLO 205 colon
NCI/ADR-RES ovarian = system: NCI/ADR-RES ovarian
IGROV1 ovarian = system: IGROV1 ovarian
TK-10 renal = system: TK-10 renal
SK-MEL-28 melanoma = system: SK-MEL-28 melanoma
SN12C renal = system: SN12C renal
LOX IMVI melanoma = system: LOX IMVI melanoma
UACC-257 melanoma = system: UACC-257 melanoma
T-47D breast = system: T-47D breast
MDA-MB-468 breast = system: MDA-MB-468 breast
SK-MEL-5 melanoma = system: SK-MEL-5 melanoma
NCI-H522 lung = system: NCI-H522 lung
A549 NSCLC = system: A549 NSCLC
SF-268 CNS = system: SF-268 CNS
SW-620 colon = system: SW-620 colon
MDA-MB-231 breast = system: MDA-MB-231 breast
HCT-116 colon = system: HCT-116 colon
MOLT-4 leukemia = system: MOLT-4 leukemia
SF-539 CNS = system: SF-539 CNS
U251 glioblastoma = system: U251 glioblastoma
RXF 393 renal = system: RXF 393 renal
HCC-2998 colon = system: HCC-2998 colon
PC-3 prostate = system: PC-3 prostate
SK-OV-3 ovarian = system: SK-OV-3 ovarian
RPMI-8226 leukemia = system: RPMI-8226 leukemia
MDA-MB-435 melanoma = system: MDA-MB-435 melanoma
CCRF-CEM leukemia = system: CCRF-CEM leukemia
SNB-19 CNS = system: SNB-19 CNS
HL-60(TB) leukemia = system: HL-60(TB) leukemia
NCI-H460 NSCLC = system: NCI-H460 NSCLC
HS 578T breast = system: HS 578T breast
BT-549 breast = system: BT-549 breast
MCF7 breast = system: MCF7 breast
OVCAR-8 ovarian = system: OVCAR-8 ovarian
OVCAR-3 ovarian = system: OVCAR-3 ovarian
NCI-H322M lung = system: NCI-H322M lung

## O=C(c1c(F)ccc(NS(=O)(=O)N2CC[C@@H](F)C2)c1F)c1c[nH]c2ncc(-c3cnc(C4CC4)nc3)cc12
HT29 colon
  GI50: 0.015 µM
  TGI: 14.5 µM
MALME-3M melanoma
  GI50: < 0.01 µM
KM12 colon
  GI50: 6.17 µM
  TGI: 18.8 µM
OVCAR-4 ovarian
  GI50: 11.2 µM
  TGI: 27.6 µM
HOP-62 NSCLC
  GI50: 5.2 µM
  TGI: 20.6 µM
CAKI-1 renal
  GI50: 3.09 µM
  TGI: 9.22 µM
HCT-15 colon
  GI50: 4.8 µM
  TGI: 20.9 µM
UO-31 renal
  GI50: 8.46 µM
  TGI: 23.5 µM
SNB-75 CNS
  GI50: 5.65 µM
  TGI: 17.9 µM
A498 renal
  GI50: 6.38 µM
  TGI: 24.3 µM
M14 melanoma
  GI50: < 0.01 µM
  TGI: 0.0149 µM
UACC-62 melanoma
  GI50: < 0.01 µM
  TGI: 0.0116 µM
OVCAR-5 ovarian
  GI50: 8.29 µM
  TGI: 27.7 µM
HOP-92 NSCLC
  GI50: 4.13 µM
  TGI: 25.1 µM
DU-145 prostate
  GI50: 4.58 µM
  TGI: 17.7 µM
ACHN renal
  GI50: 4.77 µM
  TGI: 20.7 µM
SF-295 CNS
  GI50: 5.27 µM
  TGI: 19.8 µM
NCI-H23 lung
  GI50: 4 µM
  TGI: 15.3 µM
NCI-H226 lung
  GI50: 5.36 µM
  TGI: 18 µM
EKVX NSCLC
  GI50: 8.14 µM
  TGI: 21.6 µM
786-0 renal
  GI50: 5.62 µM
  TGI: 29.7 µM
COLO 205 colon
  GI50: < 0.01 µM
  TGI: 0.021 µM
NCI/ADR-RES ovarian
  GI50: 19 µM
  TGI: 41.3 µM
IGROV1 ovarian
  GI50: 3.08 µM
  TGI: 13.5 µM
TK-10 renal
  GI50: 11.8 µM
  TGI: 35.4 µM
SK-MEL-28 melanoma
  GI50: < 0.01 µM
  TGI: 0.0127 µM
SN12C renal
  GI50: 7.66 µM
  TGI: > 100 µM
LOX IMVI melanoma
  GI50: 0.0301 µM
  TGI: 4.13 µM
UACC-257 melanoma
  GI50: < 0.01 µM
  TGI: 0.0246 µM

## C[C@H]1Oc2cc(cnc2N)-c2c(nn(C)c2C#N)CN(C)C(=O)c2ccc(F)cc21
HT29 colon
  GI50: 18 µM
  TGI: > 100 µM
T-47D breast
  GI50: 57.2 µM
  TGI: > 100 µM
MDA-MB-468 breast
  GI50: 23.8 µM
  TGI: > 86.2 µM
SK-MEL-5 melanoma
  GI50: 50.2 µM
  TGI: > 100 µM
MALME-3M melanoma
  GI50: 26.2 µM
  TGI: > 100 µM
KM12 colon
  GI50: 0.364 µM
  TGI: > 100 µM
NCI-H522 lung
  GI50: 33.7 µM
  TGI: 99.5 µM
OVCAR-4 ovarian
  GI50: > 100 µM
  TGI: > 100 µM
A549 NSCLC
  GI50: 22 µM
  TGI: > 100 µM
SF-268 CNS
  GI50: 47.3 µM
  TGI: > 100 µM
SW-620 colon
  GI50: > 100 µM
  TGI: > 100 µM
HOP-62 NSCLC
  GI50: 15.7 µM
  TGI: > 100 µM
CAKI-1 renal
  GI50: 26.5 µM
  TGI: > 100 µM
HCT-15 colon
  GI50: 91.9 µM
  TGI: > 100 µM
UO-31 renal
  GI50: 37.3 µM
  TGI: > 54 µM
MDA-MB-231 breast
  GI50: 14.6 µM
  TGI: 84.5 µM
HCT-116 colon
  GI50: 32.1 µM
  TGI: > 100 µM
SNB-75 CNS
  GI50: 34.4 µM
  TGI: > 84.7 µM
MOLT-4 leukemia
  GI50: 4.84 µM
  TGI: 18.8 µM
A498 renal
  GI50: > 95.6 µM
  TGI: > 100 µM
SF-539 CNS
  GI50: > 100 µM
  TGI: > 100 µM
M14 melanoma
  GI50: 56.3 µM
  TGI: > 100 µM
UACC-62 melanoma
  GI50: 32.8 µM
  TGI: > 100 µM
OVCAR-5 ovarian
  GI50: 37.7 µM
  TGI: > 100 µM
HOP-92 NSCLC
  GI50: 11 µM
  TGI: 67.6 µM
U251 glioblastoma
  GI50: > 100 µM
  TGI: > 100 µM
RXF 393 renal
  GI50: 11.6 µM
  TGI: > 63.1 µM
DU-145 prostate
  GI50: 49.8 µM
  TGI: > 100 µM
ACHN renal
  GI50: 11.4 µM
  TGI: > 24.9 µM
HCC-2998 colon
  GI50: > 100 µM
  TGI: > 100 µM
SF-295 CNS
  GI50: 72.8 µM
  TGI: > 100 µM
NCI-H23 lung
  GI50: 24.3 µM
  TGI: > 100 µM
PC-3 prostate
  GI50: > 100 µM
  TGI: > 100 µM
SK-OV-3 ovarian
  GI50: 68.2 µM
  TGI: > 100 µM
RPMI-8226 leukemia
  GI50: 57 µM
  TGI: > 100 µM
NCI-H226 lung
  GI50: 23 µM
  TGI: > 73.1 µM
MDA-MB-435 melanoma
  GI50: > 100 µM
  TGI: > 100 µM
EKVX NSCLC
  GI50: 9.26 µM
  TGI: 44.1 µM
CCRF-CEM leukemia
  GI50: 57.1 µM
  TGI: > 100 µM
SNB-19 CNS
  GI50: > 100 µM
  TGI: > 100 µM
786-0 renal
  GI50: 49.7 µM
  TGI: > 100 µM
COLO 205 colon
  GI50: 11.1 µM
  TGI: > 84.1 µM
NCI/ADR-RES ovarian
  GI50: 41.6 µM
  TGI: > 100 µM
HL-60(TB) leukemia
  GI50: 63.8 µM
  TGI: > 100 µM
NCI-H460 NSCLC
  GI50: 35.7 µM
  TGI: > 100 µM
HS 578T breast
  GI50: 19.9 µM
  TGI: > 100 µM
IGROV1 ovarian
  GI50: 26.1 µM
  TGI: > 83.6 µM
BT-549 breast
  GI50: > 100 µM
  TGI: > 100 µM
TK-10 renal
  GI50: > 92.9 µM
  TGI: > 100 µM
MCF7 breast
  GI50: 17.5 µM
  TGI: > 100 µM
OVCAR-8 ovarian
  GI50: > 100 µM
  TGI: > 100 µM
SK-MEL-28 melanoma
  GI50: > 79.1 µM
  TGI: > 100 µM
SN12C renal
  GI50: 61.6 µM
  TGI: > 100 µM
OVCAR-3 ovarian
  GI50: > 88 µM
  TGI: > 100 µM
LOX IMVI melanoma
  GI50: > 71.9 µM
  TGI: > 100 µM
UACC-257 melanoma
  GI50: > 100 µM
  TGI: > 100 µM
NCI-H322M lung
  GI50: 23.6 µM
  TGI: > 78.6 µM

Reference: PubChem BioAssay (NCI)
